Measured values: patent US8343930B2, “Combination therapy for the treatment of tumors” (Cancer Advances, Inc., priority 2001, dated 2013)

Tests used:
a number of cell lines = settings: Seva et al., 1990; Watson et al., 1991a; cited from earlier work
[1] = system: gastrin-sensitive mouse colon tumor MC26; settings: MC26-bearing mice; control animals 25 days; cited from earlier work
rat colon tumor DHDK12 = experiment: In vivo growth of DHDK12 tumors in abdominal wall muscle layer of BDIX rats; settings: immunization alone (200 μg/ml), 50 day time period; untreated 4.43 g
Protocol: Cell line. DHDK12 is a rat colonic epithelial tumor cell line (Martin, 1983). The cell line was maintained in RPMI 1640 growth medium (Gibco, Paisley, Scotland) containing 10% fetal calf serum (FCS, Sigma, Poole, UK) in humidified conditions at 37° C. and 5% CO2.
Initiation of tumor growth. DHDK12 cells were suspended in sterile phosphate buffered line (PBS, Oxoid, Hants., UK) at a cell concentration of 2.5×10^7/ml. Rats were anesthetized by a 1 ml intraperitoneal injection of Hypnorm ([…] fenatanyl citrate and 10 mg/ml fluanisone; Jannsen, Berrse, Belgium), Hypnovel ([…] midazolam; Roche, Basel, Switzerland), and sterile distilled water in a 1:1:5 ratio. Following a subcutaneous (s.c.) incision on the right flank, a 200 μl volume of cell suspension was injected into the muscle layer of the abdominal wall and the surgical incision closed by wound clips. Each experimental group was composed of between 6 and 13 animals.
The effects of combined therapies with 5-FU/Leucovorin (12.5-30 mg/kg) and rat anti-G17(1-9)-DT (200 μg/ml) on the growth of the rat colon tumor DHDK12 cell line in the muscle layer of the abdominal wall of BDIX rats were tested by comparison to tumors in control animals as described in the previous Examples. At the end of the therapies the rats were killed, their tumors excised and weighed using standard procedures. […]

[2] = system: advanced colorectal cancer; settings: advanced disease (Petrioli et al., 1995); cited from earlier work

CCCN(CCC)C(=O)C(CCC(=O)O)NC(=O)c1ccccc1 (centres unmarked) [proglumide]
effect on basal and gastrin-stimulated proliferation (a number of cell lines): inhibited | survival of treated animals [1]: 39 days

O=C(N[C@@H](Cc1c[nH]c2ccccc12)C(=O)O)c1ccc(Cl)cc1 [Benzotript]
effect on basal and gastrin-stimulated proliferation (a number of cell lines): inhibited

Diphtheria toxoid [DT]
median tumor weight (rat colon tumor DHDK12): 4.7 g

O=c1[nH]cc(F)c(=O)[nH]1 [5-FU, 5-fluorouracil]
median survival [2]: 7.5 months
